From PubChem BioAssay (NCI)
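Test compounds were applied to cells in 96-well plates for 48 hours at 5 doses. TGI marks complete inhibition of growth.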

How the values were obtained:
Test in all cases: NCI anticancer screen, dose series, 48 h
[1] = system: UO-31 renal
[2] = system: SK-MEL-28 melanoma
[3] = system: OVCAR-3 ovarian
[4] = system: CAKI-1 renal
[5] = system: KM12 colon
[6] = system: EKVX NSCLC
[7] = system: MALME-3M melanoma
[8] = system: U251 CNS
[9] = system: HT29 colon
[10] = system: OVCAR-4 ovarian
[11] = system: SK-MEL-5 melanoma
[12] = system: SNB-19 CNS
[13] = system: UACC-257 melanoma
[14] = system: SF-268 CNS
[15] = system: A549 NSCLC
[16] = system: SF-295 CNS
[17] = system: UACC-62 melanoma
[18] = system: MOLT-4 leukemia
[19] = system: A498 renal
[20] = system: MDA-N
[21] = system: SN12C renal
[22] = system: PC-3 prostate
[23] = system: NCI-H460 lung
[24] = system: NCI-H23 lung
[25] = system: CCRF-CEM leukemia
[26] = system: HOP-62 NSCLC
[27] = system: BT-549 breast
[28] = system: M14 melanoma
[29] = system: SNB-75 CNS
[30] = system: MDA-MB-435
[31] = system: NCI-H522 lung
[32] = system: OVCAR-5 ovarian
[33] = system: HCC-2998 colon
[34] = system: HCT-116 colon
[35] = system: DU-145 prostate
[36] = system: HCT-15 colon
[37] = system: COLO 205 colon
[38] = system: RPMI-8226 leukemia
[39] = system: SW-620 colon
[40] = system: HS 578T breast
[41] = system: HOP-92 NSCLC
[42] = system: SR leukemia
[43] = system: SK-MEL-2 melanoma
[44] = system: TK-10 renal
[45] = system: SK-OV-3 ovarian
[46] = system: MDA-MB-231 breast
[47] = system: IGROV1 ovarian
[48] = system: HL-60(TB) leukemia
[49] = system: NCI/ADR-RES ovarian
[50] = system: SF-539 CNS
[51] = system: OVCAR-8 ovarian
[52] = system: MCF7 breast
[53] = system: NCI-H226 lung
[54] = system: RXF 393 renal
[55] = system: ACHN renal
[56] = system: 786-0 renal
[57] = system: K-562 leukemia
[58] = system: LOX IMVI melanoma

In the case of CCOC(=O)C(Cc1c(-c2[nH]c3ccccc3c2CC(NC(=O)CNC(C)=O)C(=O)OCC)[nH]c2ccccc12)NC(=O)CNC(C)=O (stereo not drawn), the TGI [1] is reported as > 100 µM, the TGI [2] is reported as > 100 µM and the TGI [3] is reported as > 100 µM. For the same compound, the TGI [4] was > 100 µM, the TGI [5] was > 100 µM and the TGI [6] was > 100 µM. For the same compound, the TGI [7] was 38.2 µM, the TGI [8] was > 100 µM and the TGI [9] was > 100 µM. The TGI [10] was > 100 µM, the TGI [11] was > 100 µM and the TGI [12] was > 100 µM. For the same compound, the TGI [13] was 73.5 µM, the TGI [14] was > 100 µM and the TGI [15] was > 100 µM. For the same compound, the TGI [16] was > 100 µM, the TGI [17] was > 100 µM and the TGI [18] was > 100 µM. For the same compound, the TGI [19] was > 100 µM, the TGI [20] was > 100 µM and the TGI [21] was > 100 µM. The TGI [22] was > 100 µM, the TGI [23] was > 100 µM and the TGI [24] was > 100 µM. For the same compound, the TGI [25] was > 100 µM, the TGI [26] was > 100 µM and the TGI [27] was > 100 µM. The TGI [28] was > 100 µM, the TGI [29] was 93.6 µM and the TGI [30] was > 100 µM. The TGI [31] was 88.8 µM, the TGI [32] was > 100 µM and the TGI [33] was 47.8 µM. The TGI [34] was > 100 µM, the TGI [35] was > 100 µM and the TGI [36] was > 100 µM. For the same compound, the TGI [37] was 35.4 µM, the TGI [38] was > 100 µM and the TGI [39] was > 100 µM. For the same compound, the TGI [40] was > 100 µM, the TGI [41] was 85.2 µM and the TGI [42] was > 100 µM. The TGI [43] was 39.9 µM, the TGI [44] was > 100 µM and the TGI [45] was > 100 µM. The TGI [46] was 40.6 µM and the TGI [47] was > 100 µM.
C[C@@H](C[C@@H](O)[C@H](O)C(C)(C)O)[C@H]1CC=C2[C@]3(C)[C@H](O)C[C@H]4C(C)(C)[C@H](O)CC[C@]4(C)[C@H]3CC[C@@]21C gave a TGI [1] of 28.7 µM, a TGI [2] of 28.5 µM and a TGI [3] of 26.2 µM. It also gave a TGI [4] of 30 µM, a TGI [5] of 32.8 µM and a TGI [6] of 26.1 µM. The TGI [7] was 28 µM, the TGI [8] was 32.1 µM and the TGI [9] was 26.2 µM. For the same compound, the TGI [10] was 27.5 µM, the TGI [11] was 28.1 µM and the TGI [12] was 32.7 µM. For the same compound, the TGI [13] was 32 µM, the TGI [14] was 32.2 µM and the TGI [15] was 26.4 µM. The TGI [48] was 40.5 µM, the TGI [16] was 28.6 µM and the TGI [18] was 29.6 µM. For the same compound, the TGI [19] was 28.5 µM, the TGI [20] was 29.5 µM and the TGI [21] was 31 µM. The TGI [22] was 28 µM, the TGI [23] was 30.2 µM and the TGI [24] was 33.6 µM. For the same compound, the TGI [25] was 40.8 µM, the TGI [26] was 28.5 µM and the TGI [27] was 31.1 µM. It also gave a TGI [28] of 28.6 µM, a TGI [49] of 28.1 µM and a TGI [29] of 39.1 µM. For the same compound, the TGI [30] was 31.4 µM, the TGI [31] was 28 µM and the TGI [32] was 33.4 µM. For the same compound, the TGI [50] was 35.7 µM, the TGI [33] was 37.9 µM and the TGI [34] was 34.7 µM. The TGI [35] was 30.8 µM, the TGI [51] was 33.8 µM and the TGI [52] was 36.7 µM. It also gave a TGI [36] of 36.1 µM, a TGI [37] of 28.5 µM and a TGI [53] of 41.1 µM. It also gave a TGI [38] of 48.2 µM, a TGI [39] of 32.3 µM and a TGI [54] of 35.7 µM. For the same compound, the TGI [40] was 50.4 µM, the TGI [41] was 27.1 µM and the TGI [42] was > 100 µM. For the same compound, the TGI [55] was 27.4 µM, the TGI [43] was 34.9 µM and the TGI [44] was 32.4 µM. The TGI [56] was 28.2 µM, the TGI [57] was 41.7 µM and the TGI [58] was 30 µM. It also gave a TGI [46] of 27.4 µM and a TGI [47] of 30.1 µM.
